Data published in PubChem BioAssay (NCI).
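1) Cells in 96-well plates. 2) Compound, 48 h, 5 concentrations. 3) Linear interpolation between surrounding doses. 4) Unreached endpoint = highest concentration. Definition used: TGI = concentration required for complete inhibition of growth.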

Experiments:
Assay in all cases: NCI-60 cell line screen, 48 h
MOLT-4 leukemia = test system: MOLT-4 leukemia
MDA-MB-435 = test system: MDA-MB-435
COLO 205 colon = test system: COLO 205 colon
MDA-N = test system: MDA-N
UACC-62 melanoma = test system: UACC-62 melanoma
SK-MEL-2 melanoma = test system: SK-MEL-2 melanoma
MCF7 breast = test system: MCF7 breast
SF-295 CNS = test system: SF-295 CNS
ACHN renal = test system: ACHN renal
T-47D breast = test system: T-47D breast
CAKI-1 renal = test system: CAKI-1 renal

| SMILES | TGI (MOLT-4 leukemia) [µM] | TGI (MDA-MB-435) [µM] | TGI (COLO 205 colon) [µM] | TGI (MDA-N) [µM] | TGI (UACC-62 melanoma) [µM] | TGI (SK-MEL-2 melanoma) [µM] | TGI (MCF7 breast) [µM] | TGI (SF-295 CNS) [µM] | TGI (ACHN renal) [µM] | TGI (T-47D breast) [µM] | TGI (CAKI-1 renal) [µM] |
| --- | --- | --- | --- | --- | --- | --- | --- | --- | --- | --- | --- |
| C[N+](C)(C)CC1Cc2ccccc2C1=O (stereo not drawn) | 4.95 | > 10 | > 6.59 | > 10 | > 10 | > 10 | 5.41 | > 10 | > 10 | 6.49 | > 8.58 |
| N#C/C(=C\c1ccc(Cl)cc1)c1nc2ccccc2c(=O)[nH]1 | > 100 | > 100 | > 100 | > 100 | > 100 | > 100 | > 100 | > 100 | > 100 | > 100 | > 100 |
| CCOP(=O)(CS(C)=O)O[C@@H]1C[C@H](C)CC[C@H]1C(C)C (stereo partly drawn) | > 100 | 11.9 | 19.8 | 8.97 | 7.08 | 12.8 | 11.1 | 18.5 | 15.8 | > 29.7 | 12.8 |
| CCCCCCCCCC(=O)OCC1(CO)C/C(=C/CC(C(C)C)C(C)C)C(=O)O1 (stereo not drawn) | 54 | > 100 | 28.7 | > 100 | > 100 | > 100 | > 100 | > 100 | > 100 | > 100 | 56.6 |
| O=c1cc(-c2ccc(O)c(O)c2)oc2cc(OC3OC(CO)C(O)C(O)C3O)cc(O)c12 (stereo not drawn) | > 100 | > 100 | > 100 | > 100 | > 100 | > 100 | > 100 | > 100 | > 100 | > 100 | > 100 |
| CC[C@@]1(O)C(=O)OCc2c1c(Cl)c1n(c2=O)Cc2cc3ccccc3nc2-1 | 19.3 | > 100 | > 100 | > 100 | 3.38 | 52.7 | > 34.7 | 18 | 6.05 | > 23 | 16.4 |
| CN(C)c1ccc(C(C#N)N2CCCN(C(C#N)c3ccc(N(C)C)cc3)C2c2ccc(N(C)C)cc2)cc1 (stereo not drawn) | > 100 | > 100 | > 100 | > 100 | > 100 | > 100 | > 100 | > 100 | > 100 | > 100 | > 100 |
| N#Cc1cnn2c1n[n+]([O-])c1ccc(Cl)cc12 | 17.6 | 26.4 | 31.7 | 22.7 | 9.09 | 17.2 | > 100 | 29.6 | 10.5 | 37.6 | 2.53 |
